{"source": "patent EP1285918A1", "about": "“C7 Ester substituted taxanes as antitumor agents” (Florida State University Research Foundation, Inc., priority 2001, dated 2003)", "key": {"[1]": {"system": "Panc-1 Human Pancreatic Carcinoma Xenografts", "summary_of_the_method": "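Female NCr-nude mice with subcutaneous flank Panc-1 fragments, six per group, dosed i.v. once on Day 1 at estimated MTD (Taxotere 70 mg/kg); vehicle controls. Survival taken as days until tumor reached 1.5 g; complete response = nonpalpable tumor at Day 63, partial = smaller than Day 1 size.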"}, "[2]": {"system": "A375 Human Melanoma Xenografts", "details": "A375; for MDS (n): 2.0 g cut-off; for MDS (n) / Complete Response / Partial Response / Stable Disease / Survivors / Toxic Deaths: Day 60; for Mean Score: tumor score 1 to 10, group mean", "summary_of_the_method": "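Female NCr-nude mice carrying subcutaneous flank A375 implants (1 mm^3), six per group (Taxotere seven). Single i.v. dose on Day 1 at each agent's estimated MTD (Taxotere 70 mg/kg), vehicle i.v. for controls; study ended Day 60. Survival days counted to 2.0 g tumor; complete response = non-palpable tumor at study end, partial = smaller than on Day 1.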"}, "[3]": {"system": "VM46 Human Colon Carcinoma Xenografts", "details": "for MDS (n): days until tumor reached 1.5 g", "summary_of_the_method": "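Female NCr-nude mice bearing subcutaneous VM46 colon carcinoma fragments, six per group, given compounds i.v. once on Day 1 at estimated MTD; vehicle i.v. for controls. Endpoints to Day 64: mean days of survival (tumor reaching 1.5 g), toxic deaths, survivors, complete/partial responses and stable disease.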"}, "[4]": {"system": "DU 145 Human Prostate Carcinoma Xenografts", "details": "DU145; for MDS (n): 1.5 g cut-off; for Mean Score: tumor score 1 to 10, group mean", "summary_of_the_method": "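Male NCr-nude mice bearing subcutaneous DU145 fragments (five per group) received one i.v. dose at each agent's estimated MTD on Day 1, with vehicle controls; the study ran to Day 91. Survival was counted until tumour reached 1.5 g. Complete or partial response was scored by palpability or shrinkage below Day-1 size.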"}, "[5]": {"details": "Panc-1, i.v. qd x 1 (mg/kg: Taxol 24, 1351 75.32, 1393 72.6, 1401 107.6, 1418 107.6, 1424 195.1), 6 mice/group"}, "[6]": {"details": "i.v. qd x 1 at estimated MTD, 6 mice/group, study end Day 63"}, "[7]": {"details": "i.v. qd x 1 (mg/kg: Taxol 24, 1351 107.6, 1393 72.6, 1401 107.6, 1418 107.6, 1424 195.1, Taxotere 70)"}, "[8]": {"details": "107.6 mg/kg i.v. qd x 1, 6 mice/group, study end Day 64"}, "[9]": {"details": "i.v. qd x 1 (mg/kg: Taxol 24, 1351 107.6, 1393 72.6, 1401 107.6, 1418 107.6, 1424 195.1), 5 mice/group, Day 91"}, "[10]": {"details": "i.v. qd x 1 (mg/kg: Taxol 24, 1351 107.6, 1393 72.6, 1401 107.6, 1418 107.6, 1424 195.1)"}, "[11]": {"details": "15 mg/kg i.p. qd x 5, 6 mice/group, study end Day 63"}, "[12]": {"details": "24 mg/kg i.v. qd x 1 as two split doses, 6 mice/group, study end Day 63"}, "[13]": {"details": "Taxol i.p. 18 mg/kg qd x 5, 6 mice"}, "[14]": {"details": "15 mg/kg i.p. qd x 5, 6 mice/group, study end Day 64"}, "[15]": {"details": "24 mg/kg i.v. qd x 1, 6 mice/group, study end Day 64"}, "[16]": {"details": "VM46, Taxol 24 mg/kg i.v. qd x 1, 6 mice, Day 64"}, "[17]": {"details": "Taxol i.p. 18 mg/kg qd x 5, 5 mice, Day 91"}}, "note": "Where two headings read alike, the source gives them in different places.", "data": [{"smiles": "CCC(=O)O[C@H]1C[C@H]2OC[C@@]2(OC(C)=O)[C@H]2[C@H](OC(=O)c3ccccc3)[C@]3(O)C[C@H](OC(=O)[C@H](O)[C@@H](NC(=O)OC(C)(C)C)c4ccoc4)C(C)=C([C@@H](O)C(=O)[C@]12C)C3(C)C", "note": "[Compound 1401]", "values": [{"measurement": "Toxic Deaths", "setting": "[1]; [5]", "value": "no toxic deaths"}, {"measurement": "Complete Response", "setting": "[1]; [6]", "value": 0}, {"measurement": "Mean Score", "setting": "[1]; [6]", "value": "6.8 ± 0.8"}, {"measurement": "Partial Response", "setting": "[1]; [6]", "value": 3}, {"measurement": "Stable Disease", "setting": "[1]; [6]", "value": 3}, {"measurement": "Survivors", "setting": "[1]; [6]", "value": 6}, {"measurement": "Toxic Deaths", "setting": "[1]; [6]", "value": 0}, {"measurement": "mean group weight losses", "setting": "[1]; mouse, in vivo, iv", "value": "3-13%"}, {"measurement": "tolerability", "setting": "[1]; mouse, in vivo, iv", "value": "well-tolerated"}, {"measurement": "MDS (n)", "setting": "[2]; [7]", "value": "22.2 ± 1.1 (6) days"}, {"measurement": "Complete Response", "setting": "[2]; [7]", "value": 0}, {"measurement": "Partial Response", "setting": "[2]; [7]", "value": 0}, {"measurement": "Stable Disease", "setting": "[2]; [7]", "value": 0}, {"measurement": "Survivors", "setting": "[2]; [7]", "value": 0}, {"measurement": "Toxic Deaths", "setting": "[2]; [7]", "value": 0}, {"measurement": "Mean Score", "setting": "[2]; [7]", "value": "2±0"}, {"measurement": "Complete Response", "setting": "[3]; [8]", "value": 0}, {"measurement": "Mean Score", "setting": "[3]; [8]", "value": "2.5 ± 1.3"}, {"measurement": "Partial Response", "setting": "[3]; [8]", "value": 1}, {"measurement": "Stable Disease", "setting": "[3]; [8]", "value": 0}, {"measurement": "Survivors", "setting": "[3]; [8]", "value": 1}, {"measurement": "Toxic Deaths", "setting": "[3]; [8]", "value": 1}, {"measurement": "MDS (n)", "setting": "[3]; [8]", "value": "46.1 ± 5.9 (4) days"}, {"measurement": "Toxic Deaths", "setting": "[3]; VM46, i.v. qd x 1 at estimated MTD, 6 mice/group", "value": "not more than one"}, {"measurement": "maximal mean group weight losses", "setting": "[3]; mouse, in vivo, iv", "value": "under 12%"}, {"measurement": "tolerability", "setting": "[3]; mouse, in vivo, iv", "value": "Acceptable toxicity"}, {"measurement": "MDS (n)", "setting": "[4]; [9]", "value": "72.6 ± 8.7 (3) days"}, {"measurement": "Complete Response", "setting": "[4]; [9]", "value": 1}, {"measurement": "Partial Response", "setting": "[4]; [9]", "value": 0}, {"measurement": "Stable Disease", "setting": "[4]; [9]", "value": 0}, {"measurement": "Survivors", "setting": "[4]; [9]", "value": 1}, {"measurement": "Toxic Deaths", "setting": "[4]; [9]", "value": 1}, {"measurement": "Mean Score", "setting": "[4]; [10]", "value": "3.6 ± 1.7"}]}, {"smiles": "CC(=O)O[C@H]1C(=O)[C@@]2(C)[C@H]([C@H](OC(=O)c3ccccc3)[C@]3(O)C[C@H](OC(=O)[C@H](O)[C@@H](NC(=O)c4ccccc4)c4ccccc4)C(C)=C1C3(C)C)[C@]1(OC(C)=O)CO[C@@H]1C[C@@H]2O", "note": "[Taxol, paclitaxel, reference compound]", "values": [{"measurement": "Complete Response", "setting": "[1]; [11]", "value": 0}, {"measurement": "Mean Score", "setting": "[1]; [11]", "value": "1.2 ± 1.2"}, {"measurement": "Partial Response", "setting": "[1]; [11]", "value": 1}, {"measurement": "Stable Disease", "setting": "[1]; [11]", "value": 0}, {"measurement": "Survivors", "setting": "[1]; [11]", "value": 1}, {"measurement": "Toxic Deaths", "setting": "[1]; [11]", "value": 4}, {"measurement": "Complete Response", "setting": "[1]; [12]", "value": 0}, {"measurement": "Mean Score", "setting": "[1]; [12]", "value": "2.2 ± 0.8"}, {"measurement": "Partial Response", "setting": "[1]; [12]", "value": 0}, {"measurement": "Stable Disease", "setting": "[1]; [12]", "value": 1}, {"measurement": "Survivors", "setting": "[1]; [12]", "value": 1}, {"measurement": "Toxic Deaths", "setting": "[1]; [12]", "value": 1}, {"measurement": "MDS (n)", "setting": "[1]; 24 mg/kg i.v. qd x 1 as two split doses, 6 mice/group, study end Day 63, days until tumor reached 1.5 g", "value": "34.7 ± 3.4", "unit": "days"}, {"measurement": "Toxic Deaths", "setting": "[1]; Panc-1, Taxol i.p. 15 mg/kg qd x 5, 6 mice", "value": "four"}, {"measurement": "Toxic Deaths", "setting": "[1]; [5]", "value": "One"}, {"measurement": "MDS", "setting": "[1]; Panc-1, i.v. qd x 1 (mg/kg: Taxol 24, 1351 75.32, 1393 72.6, 1401 107.6, 1418 107.6, 1424 195.1), 6 mice/group, 1.5 g cut-off, Day 63", "value": 34.7, "unit": "days"}, {"measurement": "Stable Disease", "setting": "[1]; Panc-1, i.v. qd x 1 (mg/kg: Taxol 24, 1393 72.6, 1418 107.6), 6 mice/group, Day 63", "value": "one"}, {"measurement": "toxicity", "setting": "[2]; Taxol i.p. 18 mg/kg qd x 5", "value": "highly toxic"}, {"measurement": "Complete Response", "setting": "[2]; [13]", "value": 0}, {"measurement": "Partial Response", "setting": "[2]; [13]", "value": 0}, {"measurement": "Stable Disease", "setting": "[2]; [13]", "value": 0}, {"measurement": "Survivors", "setting": "[2]; [13]", "value": 0}, {"measurement": "Mean Score", "setting": "[2]; Taxol i.p. 18 mg/kg qd x 5", "value": "0±0"}, {"measurement": "MDS (n)", "setting": "[2]; [7]", "value": "18.1 ± 0.6 (4) days"}, {"measurement": "Complete Response", "setting": "[2]; [7]", "value": 0}, {"measurement": "Partial Response", "setting": "[2]; [7]", "value": 0}, {"measurement": "Stable Disease", "setting": "[2]; [7]", "value": 0}, {"measurement": "Survivors", "setting": "[2]; [7]", "value": 0}, {"measurement": "Toxic Deaths", "setting": "[2]; [7]", "value": 2}, {"measurement": "Mean Score", "setting": "[2]; [7]", "value": "0.8 ± 0.3"}, {"measurement": "survival extension compared to Group 1 controls", "setting": "[2]; i.v. qd x 1 (mg/kg: Taxol 24, 1393 72.6, 1418 107.6, Taxotere 70)", "value": 26, "unit": "%"}, {"measurement": "Complete Response", "setting": "[3]; [14]", "value": 0}, {"measurement": "Mean Score", "setting": "[3]; [14]", "value": "1.8 ± 1.3"}, {"measurement": "Partial Response", "setting": "[3]; [14]", "value": 1}, {"measurement": "Stable Disease", "setting": "[3]; [14]", "value": 0}, {"measurement": "Survivors", "setting": "[3]; [14]", "value": 1}, {"measurement": "Toxic Deaths", "setting": "[3]; [14]", "value": 3}, {"measurement": "MDS (n)", "setting": "[3]; [14]", "value": "36.1 ± 12.2 (2) days"}, {"measurement": "Complete Response", "setting": "[3]; [15]", "value": 0}, {"measurement": "Mean Score", "setting": "[3]; [15]", "value": "3.8 ± 1.4"}, {"measurement": "Partial Response", "setting": "[3]; [15]", "value": 1}, {"measurement": "Stable Disease", "setting": "[3]; [15]", "value": 1}, {"measurement": "Survivors", "setting": "[3]; [15]", "value": 2}, {"measurement": "Toxic Deaths", "setting": "[3]; [15]", "value": 0}, {"measurement": "Partial Response", "setting": "[3]; [16]", "value": "one"}, {"measurement": "Stable Disease", "setting": "[3]; [16]", "value": "one"}, {"measurement": "toxicity", "setting": "[3]; VM46, Taxol i.p. 15 mg/kg qd x 5", "value": "excessively toxic"}, {"measurement": "mortalities", "setting": "[3]; VM46, Taxol i.p. 15 mg/kg qd x 5, 6 mice", "value": "three"}, {"measurement": "increase in survival compared to Group 1 controls", "setting": "[4]; Taxol 24 mg/kg i.v. qd x 1", "value": 9, "unit": "%"}, {"measurement": "toxicity", "setting": "[4]; Taxol i.p. 18 mg/kg qd x 5", "value": "highly toxic"}, {"measurement": "weight loss", "setting": "[4]; Taxol i.p. 18 mg/kg qd x 5", "value": "more than 20%"}, {"measurement": "Complete Response", "setting": "[4]; [17]", "value": 0}, {"measurement": "Partial Response", "setting": "[4]; [17]", "value": 0}, {"measurement": "Stable Disease", "setting": "[4]; [17]", "value": 0}, {"measurement": "Survivors", "setting": "[4]; [17]", "value": 0}, {"measurement": "Mean Score", "setting": "[4]; Taxol i.p. 18 mg/kg qd x 5", "value": "0 ± 0"}, {"measurement": "MDS (n)", "setting": "[4]; [9]", "value": "37.4 ± 8.9 (3) days"}, {"measurement": "Complete Response", "setting": "[4]; [9]", "value": 0}, {"measurement": "Partial Response", "setting": "[4]; [9]", "value": 0}, {"measurement": "Stable Disease", "setting": "[4]; [9]", "value": 1}, {"measurement": "Survivors", "setting": "[4]; [9]", "value": 1}, {"measurement": "Mean Score", "setting": "[4]; [10]", "value": "2 ± 1"}]}]}
